One block for each compound: values may come before it.
Assays:
[1] = biological target: T1, Tyrosine-protein kinase SYK (Homo sapiens, UniProt P43405); assay: Inhibition of Syk (unknown origin) preincubated for 20 mins followed by 33P-gamma-ATP measured after 120 mins by HotSpot assay
Ramos = assay: Inhibition of […] in serum-starved human Ramos cells incubated for 1 hr followed by anti-human IgM F(ab)2 measured after 5 mins; format: functional, cell-based
MV4-11 = assay: Inhibition of cell viability in human MV4-11 cells incubated for 72 hrs by Cell Titer Glo assay; format: functional, cell-based; details: MV4-11, 72 h
[2] = Metabolic stability in human liver microsomes assessed as intrinsic clearance at […] incubated for 60 mins in presence of NADPH by LC-MS/MS analysis; format: ADME, Microsome; details: read-out: CLH
[3] = Metabolic stability in human liver microsomes assessed as half life at […] incubated for 60 mins in presence of NADPH by LC-MS/MS analysis; format: ADME, Microsome
[4] = biological target: T1, Tyrosine-protein kinase SYK; assay: Inhibition of Syk (unknown origin) assessed as enzyme activity at 2 uM preincubated for 20 mins followed by 33P-gamma-ATP measured after 120 mins by HotSpot assay relative to control; parameters: scale not given: the % may be the effect or the level left; details: time 140.0 min

IC50 [1]: 15800 nM
SMILES: CCNc1c[nH]nc1-c1nc2ccccc2[nH]1

IC50 [1]: 4.9 nM | IC50 (Ramos): 41.5 nM | IC50 (MV4-11): 10.8 nM | microsomal CLint [2]: 79.9 µL/min/mg | half-life [3]: 0.288 h
SMILES: COc1ccc2[nH]c(-c3n[nH]cc3Nc3ncnc4[nH]ccc34)nc2c1

IC50 [1]: 5.6 nM | IC50 (Ramos): 39.2 nM | IC50 (MV4-11): 11 nM | microsomal CLint [2]: 14.2 µL/min/mg | half-life [3]: 1.63 h
SMILES: Cc1cccc2[nH]c(-c3n[nH]cc3Nc3ncnc4[nH]ccc34)nc12

IC50 [1]: 77.6 nM
SMILES: Cc1cc2nc(-c3n[nH]cc3Nc3ncnc4sccc34)[nH]c2cc1C

IC50 [1]: 321 nM
SMILES: COC(=O)c1cc(Nc2c[nH]nc2-c2nc3ccccc3[nH]2)nc(Cl)n1

IC50 [1]: 8.4 nM | IC50 (Ramos): 29.8 nM | IC50 (MV4-11): 3.3 nM | microsomal CLint [2]: 14.3 µL/min/mg | half-life [3]: 1.62 h
SMILES: COc1cccc2[nH]c(-c3n[nH]cc3Nc3ncnc4[nH]ccc34)nc12

IC50 [1]: 531 nM
SMILES: O=C(Nc1nccc(Nc2c[nH]nc2-c2nc3ccccc3[nH]2)n1)c1ccccc1

IC50 [1]: 28.2 nM
SMILES: Cc1cc2nc(-c3n[nH]cc3Nc3ccnc4[nH]ccc34)[nH]c2cc1C

Activity [4]: 92.3%
SMILES: Cn1c(-c2n[nH]cc2Nc2ccnc(N)n2)nc2ccccc21

IC50 [1]: 154 nM
SMILES: Cc1nc(Nc2c[nH]nc2-c2nc3cc(C)c(C)cc3[nH]2)c2cc[nH]c2n1

IC50 [1]: 60.1 nM
SMILES: Nc1nccc(Nc2c[nH]nc2-c2nc3ccccc3[nH]2)n1

Activity [4]: 47.9%
SMILES: c1ccc2[nH]c(-c3n[nH]cc3Nc3ccnc(NCC4CCCCC4)n3)nc2c1

IC50 [1]: 2.7 nM | IC50 (Ramos): 61.4 nM | IC50 (MV4-11): 19.7 nM | microsomal CLint [2]: 30.8 µL/min/mg | half-life [3]: 0.748 h
SMILES: CN(C)c1ccc2[nH]c(-c3n[nH]cc3Nc3ncnc4[nH]ccc34)nc2c1

IC50 [1]: 5.9 nM | IC50 (Ramos): 184 nM | IC50 (MV4-11): 66.4 nM
SMILES: c1nc(Nc2c[nH]nc2-c2nc3cc(N4CCCCC4)ccc3[nH]2)c2cc[nH]c2n1

IC50 [1]: 135 nM
SMILES: Nc1cc(Nc2c[nH]nc2-c2nc3ccccc3[nH]2)ncn1

Activity [4]: 18.5%
SMILES: c1ccc2[nH]c(-c3n[nH]cc3Nc3ncnc4c3CCC4)nc2c1

Activity [4]: 91.2%
SMILES: Clc1cc(Nc2c[nH]nc2-c2nc3ccccc3[nH]2)nc(N2CCOCC2)n1

IC50 [1]: 687 nM
SMILES: c1ccc(Nc2nccc(Nc3c[nH]nc3-c3nc4ccccc4[nH]3)n2)cc1

IC50 [1]: 240 nM
SMILES: Clc1nccc(Nc2c[nH]nc2-c2nc3ccccc3[nH]2)n1

Activity [4]: 60.5%
SMILES: Cc1ccc(CNc2c[nH]nc2-c2nc3ccccc3[nH]2)o1

Activity [4]: 40.5%
SMILES: CCN(CC)CCNc1nccc(Nc2c[nH]nc2-c2nc3ccccc3[nH]2)n1

IC50 [1]: 3.2 nM | IC50 (Ramos): 35.9 nM | IC50 (MV4-11): 9.3 nM | microsomal CLint [2]: 15.9 µL/min/mg | half-life [3]: 1.45 h
SMILES: CN(C)CCN(C)c1ccc2[nH]c(-c3n[nH]cc3Nc3ncnc4[nH]ccc34)nc2c1
